Here are results for 11 molecules from ChEMBL document CHEMBL3259567, “Novel 2,4-Diarylaminopyrimidine Analogues (DAAPalogues) Showing Potent c-Met/ALK Multikinase Inhibitory Activities” (ACS Med Chem Lett, 2014).

In series [1] the target is ALK tyrosine kinase receptor (Homo sapiens, UniProt Q9UM73).
The target of series [2] is Hepatocyte growth factor receptor (Homo sapiens, UniProt P08581).
In series [3] the target is Proto-oncogene tyrosine-protein kinase Src (Homo sapiens) (UniProt P12931). As to the kind of experiment: Inhibition of purified recombinant c-SRC (unknown origin) at 1 uM after 60 mins by ELISA.
Series [4] can be described thus: Oral bioavailability in mouse at 20 mg/kg. It counts as ADME, organism-based. Particulars: in vivo.
For series [5], the target named is Fibroblast growth factor receptor 1 (Homo sapiens) (UniProt P11362). Kind of series: Inhibition of purified recombinant FGFR1 (unknown origin) at 1 uM after 60 mins by ELISA.
The test system of series [6] is BaF3. As to the kind of experiment: Antitumor activity against mouse BAF3 cells expressing EML4-ALK fusion protein allografted in nude mouse assessed as tumor growth inhibition at 1 mg/kg, po qd for 2 weeks relative to vehicle-treated control. The class given is functional. Particulars: BaF3, 336 h, read-out: TGI.
Series [7] addresses Proto-oncogene tyrosine-protein kinase receptor Ret (Homo sapiens) (UniProt P07949). Kind of series: Inhibition of purified recombinant RET (unknown origin) at 1 uM after 60 mins by ELISA. In general terms: In an ELISA, binding on a coated surface is turned into a signal by an enzyme label.
The nature of series [8]: AUC (0 to infinity) in mouse at 20 mg/kg, po. It counts as ADME, organism-based. On the set-up: time infinity, dose 20 mg/kg, route oral. Particulars: plasma.
Series [9] can be described thus: cells. Particulars: Homo sapiens, EBC-1, 72 h.
Description: Antiproliferative activity against cMET-amplified human EBC1 cells after 72 hrs
The nature of series [10]: cells. Particulars: Homo sapiens, KARPAS-299, 72 h.
Description: Antiproliferative activity against ALK-dependent human KARPAS299 cells after 72 hrs
In series [11] the target is Macrophage-stimulating protein receptor (Homo sapiens) (UniProt Q04912). Kind of series: Inhibition of purified recombinant RON (unknown origin) at 1 uM after 60 mins by ELISA.
Series [12] is described as follows: Clearance in mouse at 10 mg/kg, iv. It counts as ADME, organism-based. On the set-up: dose 10 mg/kg, route intravenous. The following applies: in vivo.
Series [13] is described as follows: Half life in mouse at 10 mg/kg, iv. The class given is ADME, organism-based. On the set-up: dose 10 mg/kg, route intravenous. The following applies: in vivo.
Series [14] addresses D(1A) dopamine receptor (Homo sapiens, UniProt P21728). As to the kind of experiment: Antagonist activity at dopamine D1 receptor (unknown origin).
The target of series [15] is D(1B) dopamine receptor (Homo sapiens, UniProt P21918). As to the kind of experiment: Antagonist activity at dopamine D5 receptor (unknown origin).
The test system of series [16] is BaF3. Kind of series: Antitumor activity against mouse BAF3 cells expressing EML4-ALK fusion protein allografted in nude mouse assessed as tumor growth inhibition at 0.3 to 1 mg/kg, po qd for 2 weeks relative to vehicle-treated control. It counts as functional, organism-based.

As a reminder, the IC50 is the concentration needed to halve the response being measured. A low value points to higher potency. What is called bioavailability is the share of a dose that reaches the circulation, judged against a reference dose that is usually intravenous. As usually defined, the AUC(0-inf) is total exposure, with the tail of the curve extrapolated. The low end stands for less exposure, the high end for more exposure. Usually clearance stands for the volume of plasma or blood freed of the substance per unit of time. A high value points to a high capacity for elimination. A word on the half-life: it is the time in which the quantity being followed falls by half. A low value points to fast loss. In general, Ki refers to a measure of affinity in units of concentration, obtained from inhibition or displacement. Higher therefore signals lower affinity.

Activity calls are given as the source filed them. The rule behind the calls is not given here. Bounds are passed on as bounds.

Sequence of ALK tyrosine kinase receptor (Q9UM73 whole entry): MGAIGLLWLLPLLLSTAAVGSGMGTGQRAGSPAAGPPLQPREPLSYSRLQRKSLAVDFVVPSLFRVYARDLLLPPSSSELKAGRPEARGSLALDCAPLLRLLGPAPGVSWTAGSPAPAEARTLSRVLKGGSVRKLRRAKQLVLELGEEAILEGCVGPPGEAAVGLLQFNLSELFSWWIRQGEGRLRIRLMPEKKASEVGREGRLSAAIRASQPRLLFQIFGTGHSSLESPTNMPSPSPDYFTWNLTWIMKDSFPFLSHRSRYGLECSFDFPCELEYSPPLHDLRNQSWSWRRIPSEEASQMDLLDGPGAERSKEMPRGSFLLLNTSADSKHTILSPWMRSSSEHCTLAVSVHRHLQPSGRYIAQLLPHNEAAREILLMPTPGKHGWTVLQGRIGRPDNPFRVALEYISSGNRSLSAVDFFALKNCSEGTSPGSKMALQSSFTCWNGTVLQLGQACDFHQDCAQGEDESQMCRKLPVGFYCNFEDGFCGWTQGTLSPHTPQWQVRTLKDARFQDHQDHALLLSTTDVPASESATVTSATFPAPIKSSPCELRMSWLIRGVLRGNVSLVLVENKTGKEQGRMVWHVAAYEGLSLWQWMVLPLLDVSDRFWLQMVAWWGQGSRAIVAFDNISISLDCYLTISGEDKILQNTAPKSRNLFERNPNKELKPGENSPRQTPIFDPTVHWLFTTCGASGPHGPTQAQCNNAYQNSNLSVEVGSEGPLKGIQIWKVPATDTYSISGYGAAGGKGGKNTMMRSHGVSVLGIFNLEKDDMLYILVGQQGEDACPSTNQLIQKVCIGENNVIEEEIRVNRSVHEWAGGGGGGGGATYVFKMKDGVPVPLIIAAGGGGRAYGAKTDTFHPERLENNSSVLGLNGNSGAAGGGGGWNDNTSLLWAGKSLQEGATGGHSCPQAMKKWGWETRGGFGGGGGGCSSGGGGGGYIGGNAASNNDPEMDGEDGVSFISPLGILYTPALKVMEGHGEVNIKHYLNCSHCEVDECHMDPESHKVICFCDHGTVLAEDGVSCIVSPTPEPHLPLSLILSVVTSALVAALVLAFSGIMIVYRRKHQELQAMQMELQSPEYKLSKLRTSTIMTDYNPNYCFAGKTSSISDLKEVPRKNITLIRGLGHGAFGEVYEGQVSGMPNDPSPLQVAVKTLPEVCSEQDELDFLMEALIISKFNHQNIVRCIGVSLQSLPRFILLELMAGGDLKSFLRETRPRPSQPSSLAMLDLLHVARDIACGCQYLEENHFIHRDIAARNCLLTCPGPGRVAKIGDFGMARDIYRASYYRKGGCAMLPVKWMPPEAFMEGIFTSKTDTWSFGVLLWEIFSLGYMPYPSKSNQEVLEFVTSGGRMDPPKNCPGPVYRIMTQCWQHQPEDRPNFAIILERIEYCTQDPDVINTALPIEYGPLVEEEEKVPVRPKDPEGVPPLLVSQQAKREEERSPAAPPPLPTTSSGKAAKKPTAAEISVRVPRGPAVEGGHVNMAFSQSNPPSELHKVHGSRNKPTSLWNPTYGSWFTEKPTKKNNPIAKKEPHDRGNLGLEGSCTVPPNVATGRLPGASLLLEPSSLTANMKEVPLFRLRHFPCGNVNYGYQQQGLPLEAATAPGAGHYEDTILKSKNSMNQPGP
Sequence of Hepatocyte growth factor receptor (P08581 whole entry): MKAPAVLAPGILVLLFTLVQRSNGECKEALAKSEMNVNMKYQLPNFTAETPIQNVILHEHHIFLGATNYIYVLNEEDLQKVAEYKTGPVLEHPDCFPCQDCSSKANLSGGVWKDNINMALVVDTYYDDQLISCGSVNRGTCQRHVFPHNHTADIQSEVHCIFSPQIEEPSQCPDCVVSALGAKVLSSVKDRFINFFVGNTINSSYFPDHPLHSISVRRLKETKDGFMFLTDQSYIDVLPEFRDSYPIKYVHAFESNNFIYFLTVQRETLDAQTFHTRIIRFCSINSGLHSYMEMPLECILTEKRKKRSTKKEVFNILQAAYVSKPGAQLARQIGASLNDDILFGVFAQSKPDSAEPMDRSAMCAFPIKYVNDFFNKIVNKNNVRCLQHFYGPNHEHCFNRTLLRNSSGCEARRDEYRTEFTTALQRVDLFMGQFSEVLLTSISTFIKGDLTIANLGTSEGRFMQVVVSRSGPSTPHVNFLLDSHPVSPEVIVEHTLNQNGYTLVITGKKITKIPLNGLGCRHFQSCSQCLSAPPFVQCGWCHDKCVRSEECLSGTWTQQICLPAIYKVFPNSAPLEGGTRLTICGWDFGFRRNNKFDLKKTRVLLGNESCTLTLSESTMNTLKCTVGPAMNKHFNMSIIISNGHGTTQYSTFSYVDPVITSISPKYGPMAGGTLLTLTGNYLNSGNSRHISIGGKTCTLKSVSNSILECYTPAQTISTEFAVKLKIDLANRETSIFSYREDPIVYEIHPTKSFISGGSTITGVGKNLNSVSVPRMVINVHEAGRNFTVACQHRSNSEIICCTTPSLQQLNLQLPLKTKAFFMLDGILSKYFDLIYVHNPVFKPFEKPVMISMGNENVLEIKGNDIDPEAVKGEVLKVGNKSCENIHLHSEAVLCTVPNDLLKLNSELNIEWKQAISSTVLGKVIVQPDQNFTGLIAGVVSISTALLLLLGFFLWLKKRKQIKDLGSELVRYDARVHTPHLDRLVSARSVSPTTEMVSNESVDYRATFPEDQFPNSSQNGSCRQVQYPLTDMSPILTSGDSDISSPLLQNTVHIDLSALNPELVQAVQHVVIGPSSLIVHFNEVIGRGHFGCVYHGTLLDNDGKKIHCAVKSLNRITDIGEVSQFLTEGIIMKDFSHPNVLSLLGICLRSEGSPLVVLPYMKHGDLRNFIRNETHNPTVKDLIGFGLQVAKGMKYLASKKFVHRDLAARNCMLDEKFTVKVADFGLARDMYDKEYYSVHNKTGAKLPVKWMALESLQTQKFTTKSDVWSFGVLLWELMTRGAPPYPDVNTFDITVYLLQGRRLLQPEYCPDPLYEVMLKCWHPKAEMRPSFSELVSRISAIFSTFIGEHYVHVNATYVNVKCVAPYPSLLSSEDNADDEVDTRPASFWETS
Sequence of Macrophage-stimulating protein receptor (Homo sapiens) (Q04912 25-304 limits assumed): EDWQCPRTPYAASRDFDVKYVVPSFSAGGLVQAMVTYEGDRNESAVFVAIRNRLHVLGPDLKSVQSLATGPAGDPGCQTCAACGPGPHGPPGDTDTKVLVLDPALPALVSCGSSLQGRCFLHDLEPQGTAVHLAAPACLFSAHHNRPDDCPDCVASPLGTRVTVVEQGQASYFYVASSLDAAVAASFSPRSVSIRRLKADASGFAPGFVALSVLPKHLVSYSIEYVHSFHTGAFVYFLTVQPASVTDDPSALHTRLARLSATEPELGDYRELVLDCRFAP
Sequence of Macrophage-stimulating protein receptor (Homo sapiens) (Q04912 310-1400 limits assumed): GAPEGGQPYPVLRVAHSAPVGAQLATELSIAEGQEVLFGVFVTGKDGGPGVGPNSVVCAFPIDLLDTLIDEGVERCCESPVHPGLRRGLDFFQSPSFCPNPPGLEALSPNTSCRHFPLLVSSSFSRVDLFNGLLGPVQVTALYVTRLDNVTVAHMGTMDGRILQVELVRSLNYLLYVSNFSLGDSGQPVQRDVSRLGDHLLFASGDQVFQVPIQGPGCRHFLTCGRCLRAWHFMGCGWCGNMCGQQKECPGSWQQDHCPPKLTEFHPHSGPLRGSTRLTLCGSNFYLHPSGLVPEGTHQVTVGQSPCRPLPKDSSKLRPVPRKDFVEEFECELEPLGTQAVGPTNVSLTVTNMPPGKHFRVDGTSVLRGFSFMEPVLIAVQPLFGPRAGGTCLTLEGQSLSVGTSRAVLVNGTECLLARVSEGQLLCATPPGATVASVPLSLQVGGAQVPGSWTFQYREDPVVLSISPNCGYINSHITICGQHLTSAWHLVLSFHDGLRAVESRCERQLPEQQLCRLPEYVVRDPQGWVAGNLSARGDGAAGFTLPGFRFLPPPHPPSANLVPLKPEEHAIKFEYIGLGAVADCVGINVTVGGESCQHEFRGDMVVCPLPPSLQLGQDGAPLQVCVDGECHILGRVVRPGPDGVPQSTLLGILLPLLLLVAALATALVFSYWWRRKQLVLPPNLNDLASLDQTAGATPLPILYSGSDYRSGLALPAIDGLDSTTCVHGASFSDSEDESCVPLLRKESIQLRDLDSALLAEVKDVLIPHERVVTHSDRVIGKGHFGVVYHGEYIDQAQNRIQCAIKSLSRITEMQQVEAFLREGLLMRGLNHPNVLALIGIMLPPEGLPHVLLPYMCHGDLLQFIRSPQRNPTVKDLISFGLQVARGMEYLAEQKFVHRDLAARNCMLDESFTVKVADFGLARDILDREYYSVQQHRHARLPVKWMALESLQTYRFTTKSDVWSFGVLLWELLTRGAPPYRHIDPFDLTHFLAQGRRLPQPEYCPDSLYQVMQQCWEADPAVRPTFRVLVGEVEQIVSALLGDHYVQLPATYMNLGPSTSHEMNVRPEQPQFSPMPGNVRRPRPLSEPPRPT
Sequence of Proto-oncogene tyrosine-protein kinase Src (Homo sapiens) (P12931 2-536 limits assumed): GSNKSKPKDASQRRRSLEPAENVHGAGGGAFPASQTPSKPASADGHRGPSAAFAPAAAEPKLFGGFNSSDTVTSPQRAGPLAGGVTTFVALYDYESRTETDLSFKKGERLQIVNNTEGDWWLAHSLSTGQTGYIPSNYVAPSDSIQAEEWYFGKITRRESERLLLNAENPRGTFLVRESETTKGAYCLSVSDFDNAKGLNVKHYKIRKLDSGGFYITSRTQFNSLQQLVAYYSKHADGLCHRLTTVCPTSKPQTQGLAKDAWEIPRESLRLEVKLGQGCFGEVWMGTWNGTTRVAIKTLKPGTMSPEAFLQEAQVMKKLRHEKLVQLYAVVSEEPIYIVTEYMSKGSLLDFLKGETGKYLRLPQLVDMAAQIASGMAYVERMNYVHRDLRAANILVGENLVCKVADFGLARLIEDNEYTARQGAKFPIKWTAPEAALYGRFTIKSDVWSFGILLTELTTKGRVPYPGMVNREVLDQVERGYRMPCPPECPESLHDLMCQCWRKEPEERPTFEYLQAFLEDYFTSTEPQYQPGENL

Take `CNC(=O)c1ccccc1Nc1nc(Nc2ccc3c(c2)C(C)CN(C)CC3)nc(N2CCOCC2)c1Cl` (centres undefined): the IC50 in [1] and in [2] was more than 1 µM in each case.

`CNC(=O)c1ccccc1Nc1nc(Nc2ccc3c(c2)C(C)CN(C)CC3)ncc1Cl` (racemic): the inhibition entry in series [3], in [5], in series [7] and in [11] was “Active” throughout. In addition, the bioavailability in series [4] came to 20%. In series [6], the inhibition in vivo at 1 mg/kg was 60.6%. In series [8], this molecule came in with a total exposure AUC(0-inf) of 5500 ng·h/mL. Besides, the IC50 worked out at 0.007 µM in series [9] and 0.014 µM in series [10]. The clearance in series [12] is 33.3 mL/min/kg. For the same molecule, the half-life in series [13] is 2.2 h.

Turning to `CNC(=O)c1ccccc1Nc1nc(Nc2ccc3c(c2)C(C)CNCC3)ncc1Cl` (centres undefined), the IC50 in [1] stood at 0.0079 µM; in [2], 0.0064 µM.

As to `CNC(=O)c1ccccc1Nc1nc(Nc2ccc3c(c2)C(C)CN(C)CC3)nc2sccc12` (centres undefined), the IC50 in series [1] and in [2] was more than 1 µM throughout.

For `CNC(=O)c1ccccc1Nc1nc(Nc2ccc3c(c2)C(C)CN(C)CC3)nc(NC)c1Cl` (centres undefined), the IC50 in series [1] and in series [2] was more than 1 µM each time.

For `CNC(=O)c1ccccc1Nc1nc(Nc2ccc3c(c2)C(C)CN(C)CC3)nc2cccnc12` (centres undefined), the IC50 in series [1] and in series [2] was more than 1 µM throughout.

With `CN1CCc2ccccc2Cc2[nH]c3ccccc3c2CC1`, the Ki in series [14] and in series [15] was less than 0.01 µM throughout.

With `CC1CN(C)CCc2ccc(Nc3ncc(Cl)c(Nc4ccccc4C(=O)N4CCOCC4)n3)cc21` (centres undefined), the IC50 in series [1] and in series [2] was more than 1 µM in each case.

For `CNC(=O)c1ccccc1Nc1nc(Nc2ccc3c(c2)C(C)CN(C)CC3)nc2ccccc12` (centres undefined), the IC50 in series [1] and in series [2] was more than 1 µM in each case.

Regarding `CNC(=O)c1ccccc1Nc1nc(Nc2ccc3c(c2)C(C)CN(C)CC3)nc(F)c1Cl` (centres undefined), the IC50 in series [1] and in series [2] was more than 1 µM in each case.

Consider `CNC(=O)c1ccccc1Nc1nc(Nc2ccc3c(c2)C(c2ccccc2)CN(C)CC3)ncc1Cl` (racemic), for which the TGI result in series [16] was “inactive”. Besides, the inhibition result in series [3], in series [5], in series [7] and in series [11] was “Active” throughout. Further, in series [4], the bioavailability was determined as 73%. Further, in [8], the AUC(0-inf) turned out to be 9070 ng·h/mL. In addition, in series [10], inhibition was half-maximal at 0.03 µM (IC50). In series [12], this molecule gave a clearance of 33.3 mL/min/kg. Moreover, the half-life in series [13] is 2.2 h.
